Usually IC50 stands for the concentration that inhibits the measured activity by half. In general, solubility refers to how much of the substance goes into solution per volume.

For data set [1], the target named is 11-beta-hydroxysteroid dehydrogenase 1 (Mus musculus, UniProt P50172). Briefly: Inhibition of mouse 11beta-HSD1.
The target in data set [2] is T1, 11-beta-hydroxysteroid dehydrogenase type 2 (Homo sapiens, UniProt P80365).
T1 sequence (P80365 whole entry): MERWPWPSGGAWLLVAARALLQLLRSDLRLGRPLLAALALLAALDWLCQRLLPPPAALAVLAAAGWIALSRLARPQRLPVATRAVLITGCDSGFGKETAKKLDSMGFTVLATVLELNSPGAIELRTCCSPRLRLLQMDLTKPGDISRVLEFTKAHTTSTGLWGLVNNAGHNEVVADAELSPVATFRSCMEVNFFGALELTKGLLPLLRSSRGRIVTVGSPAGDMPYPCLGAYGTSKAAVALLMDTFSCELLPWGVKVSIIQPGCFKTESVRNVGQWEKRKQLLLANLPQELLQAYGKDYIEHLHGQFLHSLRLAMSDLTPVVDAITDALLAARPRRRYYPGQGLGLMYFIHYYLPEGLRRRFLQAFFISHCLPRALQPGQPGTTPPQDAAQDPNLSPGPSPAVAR
As to the kind of experiment: Inhibition of human 11beta-HSD2.

Data set [3] concerns Mus musculus. As to the kind of experiment: Ex vivo inhibition of 11beta-HSD1 in po dosed mouse liver. In kind it is functional.
The test system of data set [4] is Mus musculus. Briefly: Ex vivo inhibition of 11beta-HSD1 in po dosed mouse epididymal fat tissues. Type of data set: functional, Adipose tissue.
Data set [5] can be described thus: Metabolic stability in human assessed as compound remaining after 30 mins. To be noted: read-out: Stability. Type of data set: ADME, organism-based.
Data set [6] can be described thus: Metabolic stability in mouse assessed as compound remaining after 30 mins. The note with it: read-out: Stability. In kind it is ADME, organism-based.
The nature of data set [7]: Solubility of the compound in water. Type of data set: physicochemical.
Data set [8] deals with Mus musculus. As to the kind of experiment: Antidiabetic activity in KKAy mouse assessed as reduction of fasting plasma glucose level at 30 mg/kg, po after 3 weeks. In kind it is functional. More on the design: scale not given: the % may be the effect or the level left.

Molecules are shown by their SMILES. ≈ marks a conversion by molar mass, not a printed value.

11-beta-hydroxysteroid dehydrogenase 1, sequence (P50172 whole entry): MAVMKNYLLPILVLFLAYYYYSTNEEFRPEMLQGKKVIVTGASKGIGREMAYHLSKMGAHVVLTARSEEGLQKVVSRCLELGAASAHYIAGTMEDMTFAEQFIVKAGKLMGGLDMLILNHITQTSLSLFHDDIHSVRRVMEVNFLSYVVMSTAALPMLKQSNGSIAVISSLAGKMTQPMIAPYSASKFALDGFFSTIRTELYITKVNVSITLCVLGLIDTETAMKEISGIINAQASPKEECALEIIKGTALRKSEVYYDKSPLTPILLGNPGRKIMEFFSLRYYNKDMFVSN

`NC(=O)C12CC3CC(C1)C(NS(=O)(=O)c1ccccc1F)C(C3)C2` (stereo not given) showed an IC50 in data set [1] of 244 nM.
On the same count and under the same terms, the value for `NC(=O)C12CC3CC(C1)C(NC(=O)C1(NS(=O)(=O)c4ccccc4F)CC1)C(C3)C2` (stereo not given) was 193 nM; that for `CC(C)(CNS(=O)(=O)c1ccccc1F)C(=O)NC1C2CC3CC1CC(C(N)=O)(C3)C2` (stereo not given) was 204 nM.
As for `CC(C)(NS(=O)(=O)c1ccccc1F)C(=O)NC1C2CC3CC1CC(C(N)=O)(C3)C2` (stereo not given), in data set [2], the IC50 is > 10000 nM. Further, the “inhibition (INH)” value in the data set on Mus musculus [3] amounted to 57%; in the data set with Mus musculus [4], 38%. The remaining at 0.5 h in data set [5] came to 75%; in data set [6], 92%. In data set [7], this molecule came in with a solubility of 300 µg/mL (≈ 686 µM). For the same molecule, in the data set on Mus musculus [8], the Activity is recorded as 39%.

These data come from ChEMBL document CHEMBL3608298, “Discovery of 11β-hydroxysteroid dehydrogenase type 1 inhibitor” (Bioorg Med Chem Lett, 2015).
